pIC50: −log10 of the molar value.
Columns and labels:
[1] = biological target: T1, Serine/threonine-protein kinase 3 (Homo sapiens) (UniProt Q13188); experiment: Selectivity interaction (Kinase panel (DSF assay)) EUB0001559a STK3
T1 sequence (whole entry): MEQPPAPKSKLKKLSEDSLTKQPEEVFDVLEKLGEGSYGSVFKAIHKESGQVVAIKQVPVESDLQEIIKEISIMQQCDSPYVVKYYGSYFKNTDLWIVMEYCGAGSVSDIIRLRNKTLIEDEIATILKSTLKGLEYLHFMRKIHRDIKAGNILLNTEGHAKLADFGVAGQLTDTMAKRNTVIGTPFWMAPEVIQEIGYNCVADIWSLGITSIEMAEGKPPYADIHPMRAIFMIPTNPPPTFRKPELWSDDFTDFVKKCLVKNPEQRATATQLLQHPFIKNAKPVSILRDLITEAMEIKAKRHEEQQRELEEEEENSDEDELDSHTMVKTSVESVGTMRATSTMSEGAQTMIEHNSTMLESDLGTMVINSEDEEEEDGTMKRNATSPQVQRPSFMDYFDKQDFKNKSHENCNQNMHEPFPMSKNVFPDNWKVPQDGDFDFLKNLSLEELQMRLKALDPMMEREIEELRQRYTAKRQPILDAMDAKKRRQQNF

[2] = biological target: T2, Protein kinase C epsilon type (Homo sapiens) (UniProt Q02156); experiment: Selectivity interaction (KinomeScan (DiscoverX)) EUB0000695a PRKCE; conditions: at 100 nM
T2 sequence (whole entry): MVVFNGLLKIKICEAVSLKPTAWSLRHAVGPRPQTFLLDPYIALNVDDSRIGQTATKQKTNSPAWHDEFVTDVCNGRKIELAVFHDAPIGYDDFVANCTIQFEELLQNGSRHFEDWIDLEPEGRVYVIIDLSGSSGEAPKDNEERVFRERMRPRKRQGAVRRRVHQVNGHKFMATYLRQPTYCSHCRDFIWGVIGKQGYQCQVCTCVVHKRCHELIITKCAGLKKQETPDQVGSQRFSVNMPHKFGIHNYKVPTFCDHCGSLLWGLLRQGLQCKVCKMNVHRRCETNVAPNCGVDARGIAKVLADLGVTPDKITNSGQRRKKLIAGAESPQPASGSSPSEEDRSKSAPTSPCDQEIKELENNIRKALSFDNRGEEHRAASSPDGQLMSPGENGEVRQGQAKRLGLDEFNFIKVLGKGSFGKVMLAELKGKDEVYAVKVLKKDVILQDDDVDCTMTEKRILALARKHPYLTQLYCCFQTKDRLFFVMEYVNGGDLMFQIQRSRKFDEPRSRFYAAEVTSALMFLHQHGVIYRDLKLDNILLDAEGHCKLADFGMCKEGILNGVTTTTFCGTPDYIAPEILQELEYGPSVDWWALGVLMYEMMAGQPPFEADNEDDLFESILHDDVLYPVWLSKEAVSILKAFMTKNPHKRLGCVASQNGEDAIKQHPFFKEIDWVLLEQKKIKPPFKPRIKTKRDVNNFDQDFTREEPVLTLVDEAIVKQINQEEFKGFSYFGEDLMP

[3] = biological target: T3, Serine/threonine-protein kinase D2 (Homo sapiens) (UniProt Q9BZL6); experiment: Selectivity interaction (Millipore kinase profiler) EUB0000124b PRKD2; conditions: at 10 µM
T3 sequence (whole entry): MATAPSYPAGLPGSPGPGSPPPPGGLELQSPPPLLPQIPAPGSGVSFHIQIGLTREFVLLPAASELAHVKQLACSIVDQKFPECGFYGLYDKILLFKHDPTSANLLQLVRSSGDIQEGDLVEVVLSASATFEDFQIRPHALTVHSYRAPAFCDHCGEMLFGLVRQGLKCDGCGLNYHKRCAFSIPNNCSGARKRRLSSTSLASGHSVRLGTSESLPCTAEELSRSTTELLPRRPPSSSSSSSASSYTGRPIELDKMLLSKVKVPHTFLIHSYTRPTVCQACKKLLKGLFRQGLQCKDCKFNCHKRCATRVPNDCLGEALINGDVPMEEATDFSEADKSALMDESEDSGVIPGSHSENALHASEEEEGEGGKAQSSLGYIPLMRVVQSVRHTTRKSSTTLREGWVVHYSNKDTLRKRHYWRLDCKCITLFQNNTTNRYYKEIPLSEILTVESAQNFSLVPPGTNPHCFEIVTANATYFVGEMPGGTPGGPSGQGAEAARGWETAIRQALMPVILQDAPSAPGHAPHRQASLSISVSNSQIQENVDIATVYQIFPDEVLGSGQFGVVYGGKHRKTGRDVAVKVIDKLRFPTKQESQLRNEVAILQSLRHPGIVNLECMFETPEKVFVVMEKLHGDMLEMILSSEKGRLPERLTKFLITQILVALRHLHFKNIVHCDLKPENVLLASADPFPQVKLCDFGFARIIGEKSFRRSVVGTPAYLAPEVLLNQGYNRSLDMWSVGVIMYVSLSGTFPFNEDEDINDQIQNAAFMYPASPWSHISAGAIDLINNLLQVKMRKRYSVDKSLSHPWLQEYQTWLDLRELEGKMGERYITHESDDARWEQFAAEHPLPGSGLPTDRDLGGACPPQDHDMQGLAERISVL

[4] = biological target: Mitogen-activated protein kinase 1 (Homo sapiens, UniProt P28482); experiment: Selectivity interaction (Kinase panel (33PanQinase(R) Activity Assay)) EUB0000877a MAPK1
Mitogen-activated protein kinase 1, sequence (P28482 whole entry): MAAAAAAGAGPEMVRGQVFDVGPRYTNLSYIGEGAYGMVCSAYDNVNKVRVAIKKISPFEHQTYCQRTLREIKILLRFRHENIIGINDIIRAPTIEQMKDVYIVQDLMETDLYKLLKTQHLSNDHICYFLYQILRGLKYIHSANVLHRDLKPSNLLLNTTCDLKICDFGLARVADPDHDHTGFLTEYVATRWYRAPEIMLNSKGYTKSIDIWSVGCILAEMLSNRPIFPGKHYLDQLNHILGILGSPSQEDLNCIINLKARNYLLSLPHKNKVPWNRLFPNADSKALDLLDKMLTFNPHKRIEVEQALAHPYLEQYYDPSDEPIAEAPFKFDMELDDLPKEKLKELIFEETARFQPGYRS

[5] = biological target: SRSF protein kinase 1 (Homo sapiens, UniProt Q96SB4); experiment: Selectivity interaction (ProQinase) EUB0000171b SRPK1
SRSF protein kinase 1, sequence (Q96SB4 whole entry): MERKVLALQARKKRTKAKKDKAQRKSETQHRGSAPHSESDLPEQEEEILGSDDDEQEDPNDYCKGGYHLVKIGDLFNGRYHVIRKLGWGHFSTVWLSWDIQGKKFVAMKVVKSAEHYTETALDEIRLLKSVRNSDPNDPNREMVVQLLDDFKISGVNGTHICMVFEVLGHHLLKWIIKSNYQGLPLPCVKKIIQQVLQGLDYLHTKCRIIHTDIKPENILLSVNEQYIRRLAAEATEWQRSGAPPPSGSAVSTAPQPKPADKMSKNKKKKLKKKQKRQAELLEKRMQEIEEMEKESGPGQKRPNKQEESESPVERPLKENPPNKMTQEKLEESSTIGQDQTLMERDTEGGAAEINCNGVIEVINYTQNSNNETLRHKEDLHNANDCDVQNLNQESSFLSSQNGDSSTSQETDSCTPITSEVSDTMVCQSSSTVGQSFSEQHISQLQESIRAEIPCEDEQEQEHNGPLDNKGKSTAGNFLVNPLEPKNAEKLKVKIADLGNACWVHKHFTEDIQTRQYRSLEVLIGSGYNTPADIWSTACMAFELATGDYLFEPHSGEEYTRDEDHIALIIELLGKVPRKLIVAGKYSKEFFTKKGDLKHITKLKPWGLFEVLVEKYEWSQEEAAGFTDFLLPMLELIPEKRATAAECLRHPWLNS

[6] = biological target: Aurora kinase B (Homo sapiens, UniProt Q96GD4); experiment: Selectivity interaction (ActivX KiNativ screen (kinase selectivity in THP-1 cell lysates)) EUB0000639a AURKB; format: subcellular; conditions: lysate, at 0.01 µM
Aurora kinase B, sequence (Q96GD4 whole entry): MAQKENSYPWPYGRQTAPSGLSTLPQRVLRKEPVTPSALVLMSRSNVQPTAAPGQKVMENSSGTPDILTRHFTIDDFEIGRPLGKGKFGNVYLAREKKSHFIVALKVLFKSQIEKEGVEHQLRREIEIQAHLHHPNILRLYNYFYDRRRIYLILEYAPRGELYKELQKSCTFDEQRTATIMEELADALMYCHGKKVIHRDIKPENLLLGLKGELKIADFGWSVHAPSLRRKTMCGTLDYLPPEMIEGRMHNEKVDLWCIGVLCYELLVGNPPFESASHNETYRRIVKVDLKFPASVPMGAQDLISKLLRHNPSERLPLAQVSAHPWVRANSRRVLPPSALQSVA

[7] = biological target: T4, Dual specificity mitogen-activated protein kinase kinase 6 (Homo sapiens) (UniProt P52564); experiment: Selectivity interaction (ActivX KiNativ screen (kinase selectivity in THP-1 cell lysates)) EUB0000639a MAP2K6; format: subcellular; conditions: lysate, at 5 µM
T4 sequence (whole entry): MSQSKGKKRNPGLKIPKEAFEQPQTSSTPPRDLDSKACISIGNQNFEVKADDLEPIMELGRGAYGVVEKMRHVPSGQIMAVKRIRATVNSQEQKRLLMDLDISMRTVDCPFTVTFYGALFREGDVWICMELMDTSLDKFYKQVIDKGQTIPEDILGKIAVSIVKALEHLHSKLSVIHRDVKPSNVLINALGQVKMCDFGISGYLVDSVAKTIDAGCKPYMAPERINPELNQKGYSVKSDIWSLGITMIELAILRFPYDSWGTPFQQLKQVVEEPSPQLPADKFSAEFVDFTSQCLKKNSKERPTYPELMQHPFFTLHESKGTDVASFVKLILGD

## CN(C(=O)c1cnn2cccnc12)c1cc2c(cc1N1CCOCC1)C(=O)N(C[C@@H](F)C(C)(C)O)C2
[1]
  dTM: 1.5 K

## Cc1cc(F)c(C(=O)Nc2cccc(-c3nncn3C(C)C)n2)cc1-n1cnc(C2CC2)c1
[2]
  % of control: 97%

## CC(=O)Nc1cccc(-n2c(=O)n(C3CC3)c(=O)c3c(Nc4ccc(I)cc4F)n(C)c(=O)c(C)c32)c1
[3]
  % of control: 98%

## CCC(=O)N1CC[C@H](Nc2ncnc3c2CN(c2cnc(OC)c(C(F)(F)F)c2)CC3)C1 [LENIOLISIB]
[4]
  pIC50: < 5.00

## C=CC(=O)Nc1cccc(C(=O)Nc2ccc(Nc3cc(-c4[nH]c(SC)nc4C)ccn3)cc2)c1
[5]; at 1 µM
  % of control: 99%
[5]; at 5 µM
  % of control: 86%

## CC[C@@H]1[C@H](F)C(=O)N[C@@H]1COc1nccc2cc(C(N)=O)c(OC)cc12 [ZIMLOVISERTIB]
[6]
  % of inhibition: 4.9%
[7]
  % of inhibition: 55.8%

— ChEMBL document CHEMBL5465560, “Selectivity Literature for EUbOPEN Chemogenomic Library” (2024)
